# Experimental data taken from article PMC12040169 (PLOS Biology, 2025).
# Assay: in vitro
# Conditions: human, hela cells
# [1] = % viability, bulk resorufin, single well
SMILES,"viability at 28.5 h, 10 µM (% viability)",further results
CCn1c2ccccc2c2cc(C#N)c(=O)[nH]c21 [CBK013595],93.9%,–
O=C(CCN1CCCCC1)NCC1OCCc2ccccc21 (stereo not drawn) [CBK013619],97%,–
CC1CN(Cc2ccccc2)CCN1c1cnccn1 (stereo not drawn) [CBK013684],102%,–
CCOC(=O)C(NCCc1ccc(OC)c(OC)c1)(NC(=O)c1ccco1)C(F)(F)F (stereo not drawn) [CBK013715],123%,–
O=C(O)CCSC1=CCS(=O)(=O)c2ccc(Cl)cc21 [CBK013721],114%,–
O=C(c1ccccc1)c1ccccc1-n1nccn1 [CBK013849],99%,–
CC(C)NC1=NC(=O)C(CC(=O)Nc2ccccc2)S1 (stereo not drawn) [CBK013880],90.7%,–
COc1ccc(C2(CNC(=O)C(O)COc3ccccc3)CCCC2)cc1OC (stereo not drawn) [CBK014053],88.5%,–
N#Cc1cnn2c(C(F)(F)F)cc(C(F)(F)F)nc12 [CBK014064],93.5%,–
CCOC(=O)CC1SC(NS(=O)(=O)c2ccc(Br)cc2)=NC1=O (stereo not drawn) [CBK014126],93.5%,–
CC(C)(C)c1nc(NS(=O)(=O)c2ccc(Cl)cc2)sc1Br [CBK014258],102%,–
O=C(O)c1ccc(OCc2n[nH]c(=S)n2-c2ccc(Cl)cc2)cc1 [CBK014317],102%,–
NC(=O)c1cccc(OCCOc2nccnc2N2CCNCC2)c1 [CBK014338G],114%,–
OCCOc1ccc(OCCOc2nccnc2N2CCNCC2)cc1 [CBK014349G],93.9%,–
COc1cc2c(cc1OC)C1(CCOCC1)CNC2CC(c1ccccc1)c1ccccc1 (stereo not drawn) [CBK014382],91.4%,–
c1ccc(-c2nc(N3CCOCC3)n3ccccc23)cc1 [CBK014407],89.2%,–
FC(F)(F)c1cccc(OCCOc2nccnc2N2CCNCC2)c1 [CBK014518G],105%,–
CC(C)N(C)C(=O)Cc1csc(N)n1 [CBK014608],100%,–
COc1cccc(CCN(Cc2ccc(S(=O)(=O)N3CCOC3=O)cc2)Cc2cccc(OCCO)c2)c1 [CBK014806],98.5%,–
COc1ccc(CN(Cc2ccc(OC)cc2)Cc2ccc(S(=O)(=O)N3CCOC3=O)cc2)cc1 [CBK014818],110%,–
COc1ccccc1CCNCc1ccc(Br)cc1 [CBK015036G],–,"viability at 28.5 h, 10 µM [1]: 96.2%"
CCn1c(C(C)Oc2ccc(Cl)cc2)n[nH]c1=S (stereo not drawn) [CBK015099],108%,–
CCn1c(C(O)c2ccccc2)n[nH]c1=S (stereo not drawn) [CBK015110],90.5%,–
CCOC(=O)N[C@@H](CC1CCCCC1)C(=O)NCCc1ccc(S(N)(=O)=O)cc1 [CBK015131],106%,–
COc1ccccc1CCNCc1ccccc1Br [CBK015149],–,"viability at 28.5 h, 10 µM [1]: 87%"

SMILES,"viability at 28.5 h, 10 µM (% viability)",further results
CCC(CN(C)C)C(=O)c1ccccc1 (stereo not drawn) [CBK015409C],95.1%,–
OCC(O)CN1CCCC1 (stereo not drawn) [CBK015457],114%,–
CN1CCN(Cc2n[nH]c(=S)n2-c2cccc(C#N)c2)CC1 [CBK015465],112%,–
COc1ccc2c(c1)C(O)C(NCc1ccccc1)C2 (stereo not drawn) [CBK015469C],104%,–
O=C(O)c1cccc2cccc(-c3cccc4cccc(C(=O)O)c34)c12 [CBK015494],109%,–
FC(F)(F)c1ccc2c(c1)N(CCCN1CCCC1)c1ccccc1S2 [CBK015520C],88%,–
CNC(c1ccncc1)C(NC)c1ccncc1 (stereo not drawn) [CBK015546],95.9%,–
CC(=O)Nc1ncc(Cl)s1 [CBK015564],108%,–
O=[N+]([O-])c1cc(S(=O)(=O)Nc2cccc3ccccc23)ccc1N1CCNCC1 [CBK015584C],90%,–
CCOC(=O)Cc1nc2cc([N+](=O)[O-])ccc2oc1=O [CBK015603],98%,–
CNC(=O)Oc1cccc2cccnc12 [CBK015609],–,"viability at 28.5 h, 10 µM: 88.5%"
C(=N\N=C\c1ccccn1)/c1ccccn1 [CBK015627],89%,–
COc1cc(C(=O)CCN2CCCCC2)cc(OC)c1OC [CBK015639C],107%,–
S=C1NCC(COc2ccc(Cl)cc2)O1 (stereo not drawn) [CBK015647],98.9%,–
NS(=O)(=O)c1ccc(Cl)c(Cl)c1 [CBK015652],118%,–
Cn1c(=O)oc2ccccc2c1=O [CBK015658],100%,–
COc1cc(C(=O)NC/C=N/O)cc(OC)c1OC [CBK015662],90%,–
Cc1nc(N)nc(N2CCN(C)CC2)n1 [CBK015681],100%,–
O=c1[nH]c2cc(Cl)cc(Cl)c2o1 [CBK015711],90.6%,–
OCCN1CSC(=S)N(CCc2ccc(Cl)cc2)C1 [CBK015713],122%,–
O=C(O)c1cc2ccccc2[nH]1 [CBK015732],100%,–
CC(C)n1c(=O)[nH]c2ccncc2c1=O [CBK015763],88.8%,–
N#Cc1cnc(NCc2ccccc2)nc1N [CBK015764],90%,–
Cc1ccccc1Nc1n[nH]c(=S)s1 [CBK015808],111%,–
CC(=O)c1ccc(O)c2ncccc12 [CBK015821],110%,–

SMILES,"viability at 28.5 h, 10 µM (% viability)",further results
CC(=O)C(/N=N\c1ccc(S(=O)(=O)Nc2nccs2)cc1)C(=O)Nc1ccc(Cl)cc1 (stereo not drawn) [CBK015826],86.8%,–
OCC1CCCCC1NCCCC(c1ccc(F)cc1)c1ccc(F)cc1 (stereo not drawn) [CBK015830C],104%,–
CN(C(=O)c1cccnc1)C(CC1CCCCC1)C1CCCCC1 (stereo not drawn) [CBK015849],99.1%,–
Cn1c(C(N)=O)cc(=O)n1-c1ccc([N+](=O)[O-])cc1 [CBK015873],101%,–
CCOc1ccc(OCCC#N)cc1 [CBK015880],84.7%,–
C/C(=N\Nc1ccc(Cl)c(Cl)c1)c1cccnc1 [CBK015914C],93.3%,–
Clc1ccc(Cl)c(N/N=C(\c2ccccc2)c2cccnc2)c1 [CBK015932C],96.9%,–
Cc1nn(Cc2ccccc2)c(C)c1C(=O)N(C)C [CBK015942],104%,–
CO[C@]1(c2ccc(Cl)cc2)CC[C@H](NCCCC(=O)c2ccc(F)cc2)CC1 [CBK015959C],90.2%,–
COc1ccccc1C1CCC(NCCCC(=O)c2ccc(F)cc2)CC1 (stereo not drawn) [CBK015965C],105%,–
OC[C@]1(c2ccccc2)CC[C@H](N2CCCC2)CC1 [CBK016010],85.5%,–
O=C(c1ccccc1)c1cc(Cl)ccc1-n1ccnc1Br [CBK016011],90.4%,–
Cc1nnc2n1-c1ccccc1SC(c1ccccc1)C2 (stereo not drawn) [CBK016040],92.9%,–
C/C(=N\NC(=O)C1CC1)c1ccc(C)cc1 [CBK016047],90.7%,–
CCN(CC)CCn1nc2n(c1=O)-c1ccccc1SC(c1ccccc1)C2 (stereo not drawn) [CBK016064],91.9%,–
Cc1ccc2cn[nH]c2c1 [CBK016109],123%,–
CCOC(=O)N/N=C1\CCCCC1CC (stereo not drawn) [CBK016112],84.7%,–
COC(=O)Nc1nc2cc3cn[nH]c3cc2[nH]1 [CBK016129],105%,–
COC(=O)N/N=C(/C)c1ccc(C)cc1 [CBK016149],109%,–
Clc1ccccc1-c1nsc(Nc2ccccc2)n1 [CBK016152],96.2%,–
O=C(OCCN1C[C@H]2CCCCC2C1c1ccccc1)c1ccc(Br)cc1 (stereo partly drawn) [CBK016175C],104%,–
Cn1c(=O)c(-c2ccccc2)nc2ccccc21 [CBK016192],143%,–
Oc1nc2ccccc2nc1-c1ccccc1 [CBK016193],94.3%,–
O=C1CC2CC3CC2C(Sc2ccccc2)C3O1 (stereo not drawn) [CBK016225],97.4%,–
Fc1ccc(C2CCCN(CCCOc3cccc(F)c3)C2)cc1 (stereo not drawn) [CBK016228B],102%,–

SMILES,"viability at 28.5 h, 10 µM (% viability)",further results
COc1c(C(N)=O)c(O)c(OC)c2occc12 [CBK016255],80.5%,–
O=C(C[n+]1ccccc1)c1ccccc1Cl [CBK016283B],112%,–
O=C(NCCCN1CCOCC1)Nc1cccc(Cl)c1Cl [CBK016286],85.5%,–
CC(=O)c1cc(C)c(C)cc1N [CBK016322],127%,–
Oc1cccnc1SCc1nc2ccccc2s1 [CBK016367],112%,–
Nc1ccc2nc(CCCCCC(=O)O)sc2c1 [CBK016399],114%,–
O=C(NO)Nc1cc(Cl)cc(Cl)c1 [CBK016430],109%,–
O=c1cc(-c2ccc(Br)cc2)nc2[nH]ccn12 [CBK016446],81%,–
CCOC(=O)N/N=C(/C)C(C)(C)C [CBK016460],105%,–
CN(C)CCCN[C@H]1CC[C@@H](c2ccccc2)CC1 [CBK016465],96.2%,–
Cc1ccc(/C=N\NC(=O)c2cccc(Cl)c2)s1 [CBK016469],90.8%,–
CCCC/C(=N/N=C(\CCCC)c1ccncc1)c1ccncc1 [CBK016521],120%,–
O=c1cc(N2CCOCC2)oc2cccc(O)c12 [CBK016536],91.3%,–
NC(=O)c1cc2c(OCCCN3CCN(C(c4ccccc4)c4ccccc4)CC3)cccc2[nH]1 [CBK016544],96%,–
Cc1cc2c(N3CCCC3)nc(N3CCCC3)nc2n1C [CBK016633C],101%,–
Cc1c(OCCC2CCCCN2C)ccc2c(=O)cc(N3CCOCC3)oc12 (stereo not drawn) [CBK016644],91.8%,–
S=C(NCc1ccc(Cl)c(Cl)c1)Nc1ccncc1 [CBK016649],84.9%,–
S=C(NCc1ccc(Cl)cc1)Nc1ccncc1 [CBK016651],79.5%,–
CC(C)n1c(=O)c2c(-c3cc(C(C)(C)C)no3)ncn2c2ccccc21 [CBK016666],86.6%,–
CCC(C)(C)Nc1cccnc1N(C)C1CCN(C(=O)c2cc3cc(N)ccc3[nH]2)CC1 [CBK016674],80.3%,–
CCC(c1ccc2ccccc2c1)c1c(O)c2ccccc2oc1=O (stereo not drawn) [CBK016681],96.7%,–
C[C@@H]1c2c(C(=O)OC(C)(C)C)ncn2-c2ccc(F)cc2N1CC(=O)N1CCCC1 [CBK016704],85.3%,–
c1c(C2CC2)[nH]c2nc(N3CCCC3)nc(N3CCCC3)c12 [CBK016707G],113%,–
CCc1c(C)nn(-c2ccccc2Cl)c1-c1ccccc1 [CBK016736],106%,–
